Patent publication US7138361B2, “Herbicidal heterocycles” (E. I. du Pont de Nemours and Company, priority 2000, dated 2006)

Assays:
Assay type in all cases: in vivo
[1] = system: Surinam grass (Brachiaria decumbens); assay: Test B postemergence; details: 13 to 15 days
Outline: (§1)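 Pre: seeded pots sprayed, chemical in non-phytotoxic solvent/surfactant mix. Post: plants 2–18 cm, 1–4 leaf, same formulation. Greenhouse 13–15 d; visual % control vs untreated, 0–100 scale.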

[2] = system: barnyardgrass (Echinochloa crus-galli); assay: Test B postemergence; details: 13 to 15 days
Outline: as §1

[3] = system: blackgrass (Alopecurus myosuroides); assay: Test B postemergence; details: 13 to 15 days
Outline: as §1

[4] = system: cocklebur (Xanthium strumarium); assay: Test B postemergence; details: 13 to 15 days
Outline: as §1

corn (Zea mays) [5] = assay: Test B postemergence; details: 13 to 15 days
Outline: as §1

[6] = system: crabgrass (Digitaria sanguinalis); assay: Test B postemergence; details: 13 to 15 days
Outline: as §1

[7] = system: giant foxtail (Setaria faberii); assay: Test B postemergence; details: 13 to 15 days
Outline: as §1

[8] = system: lambsquarters (Chenopodium album); assay: Test B postemergence; details: 13 to 15 days
Outline: as §1

[9] = system: morning glory (Ipomoea hederacea); assay: Test B postemergence; details: 13 to 15 days
Outline: as §1

[10] = system: pigweed (Amaranthus retroflexus); assay: Test B postemergence; details: 13 to 15 days
Outline: as §1

[11] = system: velvetleaf (Abutilon theophrasti); assay: Test B postemergence; details: 13 to 15 days
Outline: as §1

[12] = system: wheat (Triticum aestivum); assay: Test B postemergence; details: 13 to 15 days
Outline: as §1

wild oat (Avena fatua) = assay: Test B postemergence; details: 13 to 15 days
Outline: as §1

[13] = system: Surinam grass (Brachiaria decumbens); assay: Test B preemergence
Outline: as §1

[14] = system: barnyardgrass (Echinochloa crus-galli); assay: Test B preemergence
Outline: as §1

[15] = system: cocklebur (Xanthium strumarium); assay: Test B preemergence
Outline: as §1

corn (Zea mays) [16] = assay: Test B preemergence
Outline: as §1

[17] = system: crabgrass (Digitaria sanguinalis); assay: Test B preemergence; details: Preemergence, Rate 500 g/ha; scale 0 to 100, 0 no effect, 100 complete control
Outline: as §1

[18] = system: giant foxtail (Setaria faberii); assay: Test B preemergence
Outline: as §1

[19] = system: lambsquarters (Chenopodium album); assay: Test B preemergence
Outline: as §1

[20] = system: morning glory (Ipomoea hederacea); assay: Test B preemergence
Outline: as §1

[21] = system: pigweed (Amaranthus retroflexus); assay: Test B preemergence
Outline: as §1

rice (Oryza saliva) [22] = assay: Test B preemergence
Outline: as §1

[23] = system: velvetleaf (Abutilon theophrasti); assay: Test B preemergence
Outline: as §1

[24] = system: barnyardgrass (Echinochloa crus-galli); assay: Test B flooded paddy test; details: Rate 1000 g/ha, scale of 0 to 100 where 0 is no effect and 100 is complete control, visually evaluated after 13 to 15 days
Outline: (§2)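 2-leaf plants, flooded paddy; greenhouse 13–15 d post-treatment; visual rating vs controls, 0–100 scale (0 = no effect, 100 = complete control); dash = no result.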

[25] = system: duck salad (Heteranthera limosa); assay: Test B flooded paddy test; details: Rate 1000 g/ha, scale of 0 to 100 where 0 is no effect and 100 is complete control, visually evaluated after 13 to 15 days
Outline: as §2

rice (Oryza saliva) [26] = assay: Test B flooded paddy test; details: Rate 1000 g/ha, scale of 0 to 100 where 0 is no effect and 100 is complete control, visually evaluated after 13 to 15 days
Outline: as §2

[27] = system: smallflower flatsedge (Cyperus difformis); assay: Test B flooded paddy test; details: Rate 1000 g/ha, scale of 0 to 100 where 0 is no effect and 100 is complete control, visually evaluated after 13 to 15 days
Outline: as §2

[28] = Rate 125 g/ha, scale 0 (no effect) to 100 (complete control)
[29] = Rate 500 g/ha, scale 0 to 100, 0 is no effect, 100 is complete control
[30] = Preemergence, Rate 500 g/ha, scale 0 to 100, 0 no effect, 100 complete control
[31] = preemergence, Rate 125 g/ha, scale of 0 to 100 where 0 is no effect and 100 is complete control, 13 to 15 days

## COc1ccn(C2CCN(c3cccc(C(F)(F)F)c3)C2=O)n1 (stereo not drawn) [Compound 60]
[1]; [28]
  Plant response rating, Surinam grass: 0
[1]; [29]
  Plant response rating, Surinam grass: 0
[2]; [28]
  Plant response rating, Barnyardgrass: 0
[2]; [29]
  Plant response rating, Barnyardgrass: 0
[3]; [28]
  Plant response rating, Blackgrass: 0
[3]; [29]
  Plant response rating, Blackgrass: 0
[4]; [28]
  Plant response rating, Cocklebur: 0
[4]; [29]
  Plant response rating, Cocklebur: 0
Corn (Zea mays) [5]; [28]
  Plant response rating, Corn: 0
Corn (Zea mays) [5]; [29]
  Plant response rating, Corn: 0
[6]; [28]
  Plant response rating, Crabgrass: 0
[6]; [29]
  Plant response rating, Crabgrass: 0
[7]; [28]
  Plant response rating, Foxtail, Giant: 0
[7]; [29]
  Plant response rating, Foxtail, Giant: 0
[8]; [28]
  Plant response rating, Lambsquarters: 0
[8]; [29]
  Plant response rating, Lambsquarters: 0
[9]; [28]
  Plant response rating, Morningglory: 0
[9]; [29]
  Plant response rating, Morningglory: 0
[10]; [28]
  Plant response rating, Pigweed: 0
[10]; [29]
  Plant response rating, Pigweed: 0
[11]; [28]
  Plant response rating, Velvetleaf: 0
[11]; [29]
  Plant response rating, Velvetleaf: 0
[12]; [28]
  Plant response rating, Wheat: 0
[12]; [29]
  Plant response rating, Wheat: 0
Wild oat (Avena fatua); [28]
  Plant response rating, Wild Oat: 0
Wild oat (Avena fatua); [29]
  Plant response rating, Wild Oat: 0
[13]; [30]
  Plant response rating, Surinam grass: 0
[13]; [31]
  Plant response rating, Surinam grass: 0
[14]; [30]
  Plant response rating, Barnyardgrass: 0
[14]; [31]
  Plant response rating, Barnyardgrass: 0
[15]; [30]
  Plant response rating, Cocklebur: 0
[15]; [31]
  Plant response rating, Cocklebur: 0
Corn (Zea mays) [16]; [30]
  Plant response rating, Corn: 0
Corn (Zea mays) [16]; [31]
  Plant response rating, Corn: 0
[17]
  Plant response rating, Crabgrass: 0
[18]; [30]
  Plant response rating, Foxtail, Giant: 0
[18]; [31]
  Plant response rating, Foxtail, Giant: 0
[19]; [30]
  Plant response rating, Lambsquarters: 0
[19]; [31]
  Plant response rating, Lambsquarters: 0
[20]; [30]
  Plant response rating, Morningglory: 0
[20]; [31]
  Plant response rating, Morningglory: 0
[21]; [30]
  Plant response rating, Pigweed: 100
[21]; [31]
  Plant response rating, Pigweed: 0
Rice (Oryza saliva) [22]; [30]
  Plant response rating, Rice: 0
Rice (Oryza saliva) [22]; [31]
  Plant response rating, Rice: 0
[23]; [30]
  Plant response rating, Velvetleaf: 0
[23]; [31]
  Plant response rating, Velvetleaf: 0
[24]
  Plant response rating, Barnyardgrass: 0
[25]
  Plant response rating, Ducksalad: 50
Rice (Oryza saliva) [26]
  Plant response rating, Rice: 0
[27]
  Plant response rating, Flatsedge: 0
